Among the data in patent US11471422B2, “Stealth, targeted nanoparticles (STN) for oral drug delivery” (priority 2014, dated 2022) are bioavailability values, retold here.

Where two headings read alike, the source gives them in different places.

What all share (conditions): in vivo
Data set [1] is described as follows: Percentage bioavailability vs time profile of Nutraceutical 1 from coated STN (FIG. 6).
Data set [2] in a line: Percentage bioavailability vs time profile of anticancer drug from coated STN (FIG. 5). The source says:
FIG. 5: Percentage Bioavailability vs time profile of anticancer drug (docetaxel) from coated STN indicating >90% release after 9 hr against conventional oral form with <10% bioavailability

Data set [3] in a line: Percentage cumulative bioavailability vs time profile of two antibiotics from coated STN (FIG. 4).

The term bioavailability denotes the share of a dose that reaches the circulation, judged against a reference dose that is usually intravenous. For `COC1=C(OC)C(=O)C(C/C=C(\C)CC/C=C(\C)CC/C=C(\C)CC/C=C(\C)CC/C=C(\C)CC/C=C(\C)CC/C=C(\C)CC/C=C(\C)CC/C=C(\C)CCC=C(C)C)=C(C)C1=O` [Coenzyme Q 10], the bioavailability at 6 hrs in data set [1] (oral, from coated STN, at 6 hrs) was > 80%. The bioavailability in data set [1] (conventional formulations) was < 15%.

Consider `CC(=O)O[C@@]12CO[C@@H]1C[C@H](O)[C@@]1(C)C(=O)[C@H](O)C3=C(C)[C@@H](OC(=O)[C@H](O)[C@@H](NC(=O)OC(C)(C)C)c4ccccc4)C[C@@](O)([C@@H](OC(=O)c4ccccc4)[C@H]21)C3(C)C` [docetaxel], for which the bioavailability at 9 hr in data set [2] (oral, from coated STN, after 9 hr (printed as release)) was > 90%. Further, the bioavailability in data set [2] (conventional oral form) is < 10%. Take `CC1(C)[C@H](C(=O)O)N2C(=O)C[C@H]2S1(=O)=O` [sulbactam]: the bioavailability at 7 hr in data set [3] (from coated STN, STN oral delivery, at 7 hr, read-out: Percentage cumulative bioavailability) was > 100%.

As for `CO/N=C(\C(=O)N[C@@H]1C(=O)N2C(C(=O)O)=C(CSc3nc(=O)c(=O)[nH]n3C)CS[C@H]12)c1csc(N)n1` [ceftriaxone], in data set [3] (po), the bioavailability at 7 hr was > 100%.
